Reference: patent US20150313228A1, “SYNERGISTIC HERBICIDAL COMBINATIONS AND METHODS OF USE” (priority 2012, published 2015)
Values joined by “and” are separate entries in the source; they are usually repeats but may differ in a detail not shown here. Equal entries are not always repeated.

System: broad-leaf and grass weed species
Test: Field testing of pre-emergence application of dicamba and acetochlor in Argentina and/or South Africa (Example 10);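 note: percent weed control in field trials, rated at 14 days (early) and 28 days (late) after treatment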
Conditions: for percent control X (ACETOCHLOR ALONE): early rating (14 day); for X (acetochlor alone): late rating (28 day)

CCOCN(C(=O)CCl)c1c(C)cccc1CC [Acetochlor, 2-chloro-N-(ethoxymethyl)-6′-ethyl-o-acetotoluidide]
percent control X (ACETOCHLOR ALONE) (AMADE, 630 g/ha): 96.7%
X (acetochlor alone) (AMADE, 630 g/ha): 57.1%
percent control X (ACETOCHLOR ALONE) (AMADE, 1260 g/ha): 99.4%
X (acetochlor alone) (AMADE, 1260 g/ha): 69.4%
percent control X (ACETOCHLOR ALONE) (AMAQU, 630 g/ha): 64.3%
X (acetochlor alone) (AMAQU, 630 g/ha): 48.8%
percent control X (ACETOCHLOR ALONE) (AMAQU, 1260 g/ha): 81.4%
X (acetochlor alone) (AMAQU, 1260 g/ha): 70.0%
percent control X (ACETOCHLOR ALONE) (ANOCR, 630 g/ha): 47.0%
X (acetochlor alone) (ANOCR, 630 g/ha): 31.6%
percent control X (ACETOCHLOR ALONE) (ANOCR, 1260 g/ha): 59.5%
X (acetochlor alone) (ANOCR, 1260 g/ha): 45.2%
percent control X (ACETOCHLOR ALONE) (BIDPI, 630 g/ha): 17.5%
X (acetochlor alone) (BIDPI, 630 g/ha): 0.0%
percent control X (ACETOCHLOR ALONE) (BIDPI, 1260 g/ha): 47.5%
X (acetochlor alone) (BIDPI, 1260 g/ha): 27.5%
X (acetochlor alone) (BRAER, 630 g/ha): 47.5%
X (acetochlor alone) (BRAER, 1260 g/ha): 65.0%
percent control X (ACETOCHLOR ALONE) (CHEAL, 630 g/ha): 46.7%
X (acetochlor alone) (CHEAL, 630 g/ha): 80.3%
percent control X (ACETOCHLOR ALONE) (CHEAL, 1260 g/ha): 50.0%
X (acetochlor alone) (CHEAL, 1260 g/ha): 77.0%
percent control X (ACETOCHLOR ALONE) (CHRGA, 630 g/ha): 0.0%
X (acetochlor alone) (CHRGA, 630 g/ha): 0.0%
percent control X (ACETOCHLOR ALONE) (CHRGA, 1260 g/ha): 86.0%
X (acetochlor alone) (CHRGA, 1260 g/ha): 10.0%
percent control X (ACETOCHLOR ALONE) (COMBE, 630 g/ha): 0.0%
X (acetochlor alone) (COMBE, 630 g/ha): 0.0%
percent control X (ACETOCHLOR ALONE) (COMBE, 1260 g/ha): 12.5%
X (acetochlor alone) (COMBE, 1260 g/ha): 0.0%
percent control X (ACETOCHLOR ALONE) (CONFA, 630 g/ha): 10.0%
X (acetochlor alone) (CONFA, 630 g/ha): 0.0%
percent control X (ACETOCHLOR ALONE) (CONFA, 1260 g/ha): 77.5%
X (acetochlor alone) (CONFA, 1260 g/ha): 12.5%
percent control X (ACETOCHLOR ALONE) (CYNDA, 630 g/ha): 30.0%
percent control X (ACETOCHLOR ALONE) (CYNDA, 1260 g/ha): 49.2%
percent control X (ACETOCHLOR ALONE) (CYPES, 630 g/ha): 0.0%
X (acetochlor alone) (CYPES, 630 g/ha): 26.3%
percent control X (ACETOCHLOR ALONE) (CYPES, 1260 g/ha): 0.0%
X (acetochlor alone) (CYPES, 1260 g/ha): 33.3%
percent control X (ACETOCHLOR ALONE) (CYPRO, 630 g/ha): 44.1%
X (acetochlor alone) (CYPRO, 630 g/ha): 17.1%
percent control X (ACETOCHLOR ALONE) (CYPRO, 1260 g/ha): 51.0%
X (acetochlor alone) (CYPRO, 1260 g/ha): 25.8%
percent control X (ACETOCHLOR ALONE) (DATFE, 630 g/ha): 62.2%
X (acetochlor alone) (DATFE, 630 g/ha): 44.5%
percent control X (ACETOCHLOR ALONE) (DATFE, 1260 g/ha): 72.3%
X (acetochlor alone) (DATFE, 1260 g/ha): 58.5%
percent control X (ACETOCHLOR ALONE) (DIGER, 630 g/ha): 0.0%
X (acetochlor alone) (DIGER, 630 g/ha): 0.0%
percent control X (ACETOCHLOR ALONE) (DIGER, 1260 g/ha): 86.0%
X (acetochlor alone) (DIGER, 1260 g/ha): 12.5% and 12.4%
percent control X (ACETOCHLOR ALONE) (DIGSA, 630 g/ha): 63.1%
X (acetochlor alone) (DIGSA, 630 g/ha): 51.3%
percent control X (ACETOCHLOR ALONE) (DIGSA, 1260 g/ha): 72.1%
X (acetochlor alone) (DIGSA, 1260 g/ha): 59.2%
X (acetochlor alone) (DTTAE, 630 g/ha): 0.0%
X (acetochlor alone) (DTTAE, 1260 g/ha): 10.0%
percent control X (ACETOCHLOR ALONE) (ELEAF, 630 g/ha): 88.3%
X (acetochlor alone) (ELEAF, 630 g/ha): 20.3%
percent control X (ACETOCHLOR ALONE) (ELEAF, 1260 g/ha): 85.9%
X (acetochlor alone) (ELEAF, 1260 g/ha): 28.3%
percent control X (ACETOCHLOR ALONE) (HIBCA, 630 g/ha): 55.0%
X (acetochlor alone) (HIBCA, 630 g/ha): 37.5%
percent control X (ACETOCHLOR ALONE) (HIBCA, 1260 g/ha): 89.5%
X (acetochlor alone) (HIBCA, 1260 g/ha): 96.5%
X (acetochlor alone) (IPOBA, 630 g/ha): 0.0%
X (acetochlor alone) (IPOBA, 1260 g/ha): 0.0%
percent control X (ACETOCHLOR ALONE) (IPOPD, 630 g/ha): 27.5%
X (acetochlor alone) (IPOPD, 630 g/ha): 21.2%
percent control X (ACETOCHLOR ALONE) (IPOPD, 1260 g/ha): 71.3%
X (acetochlor alone) (IPOPD, 1260 g/ha): 63.0%
percent control X (ACETOCHLOR ALONE) (OVERALL, 630 g/ha): 49.8%
percent control X (ACETOCHLOR ALONE) (OVERALL, 1260 g/ha): 64.2%
X (acetochlor alone) (Overall, 630 g/ha): 37.8%
X (acetochlor alone) (Overall, 1260 g/ha): 50.8%
percent control X (ACETOCHLOR ALONE) (PERCENT WEED FREE, 1260 g/ha): 75.5%
percent control X (ACETOCHLOR ALONE) (POROL, 630 g/ha): 38.6%
X (acetochlor alone) (POROL, 630 g/ha): 26.7%
percent control X (ACETOCHLOR ALONE) (POROL, 1260 g/ha): 47.5%
X (acetochlor alone) (POROL, 1260 g/ha): 37.8%
X (acetochlor alone) (Percent Weed Free, 630 g/ha): 53.2%
X (acetochlor alone) (Percent Weed Free, 1260 g/ha): 63.8%
percent control X (ACETOCHLOR ALONE) (RCHBR, 630 g/ha): 57.0%
X (acetochlor alone) (RCHBR, 630 g/ha): 22.5%
percent control X (ACETOCHLOR ALONE) (RCHBR, 1260 g/ha): 87.7%
X (acetochlor alone) (RCHBR, 1260 g/ha): 67.4%
percent control X (ACETOCHLOR ALONE) (TAGMI, 630 g/ha): 89.9%
X (acetochlor alone) (TAGMI, 630 g/ha): 45.8%
percent control X (ACETOCHLOR ALONE) (TAGMI, 1260 g/ha): 95.3%
X (acetochlor alone) (TAGMI, 1260 g/ha): 65.0%
percent control X (ACETOCHLOR ALONE) (XANST, 630 g/ha): 59.7%
X (acetochlor alone) (XANST, 630 g/ha): 33.7%
percent control X (ACETOCHLOR ALONE) (XANST, 1260 g/ha): 72.6%
X (acetochlor alone) (XANST, 1260 g/ha): 37.7%
